Results taken from patent publication US12384765B2, “Catecholamine prodrugs for use in the treatment of Parkinson's Disease” (H. Lundbeck A/S, priority 2019, dated 2025).

Tests used:
[1] = PK experiments in rats, plasma compound (I) after oral dosing; type: in vivo, Han Wistar rats; conditions: for plasma concentrations of compound (I) after oral dosing (in words): oral dosing to Wistar rats
Experimental: Plasma was placed on water-ice following collection. Final storage at approximately −70° C.
Mobile phase B: Acetonitrile. […] Flow rate 0.5 mL/min.
The rats had unrestricted access to the diet.
Mobile phase B: Acetonitrile+0.2% formic acid. […] Flow rate 0.3 mL/min.
The rats received a standard laboratory diet Teklad 2014C. The rats had unrestricted access to the diet.

human hepatocytes [2] = experiment: Conversion of compounds in human hepatocytes; type: in vitro ADME; conditions: 1 μM compound, 37° C.; nd: not detected
Experimental: Incubations were conducted in 96-well plates at 1 μM compound concentration in duplicate. The hepatocyte cell concentration was 0.5×10^6 cells/mL used for final incubation at 37° C. in an incubator of 5% CO2 95% relative humidity. The medium control samples were included at 0 and 60 minutes in the absence of cells. The total organic concentration was 1% (DMSO 0.1%) in the final incubation. The controls, (7-ethoxycoumarin and 7-hydroxycoumarin) was incubated parallel at 3 μM. 2 μL of dosing solution (50 μM for test compounds and 100 μM for positive control) was mixed with 98 μL of 100 mM PBS to achieve 1 μM test compound and 2 μM positive control of final concentration. The mixture was incubated, and samples were withdrawn from the incubations at pre-determined time points of 0, 0.5, 1, 2, 4 and 6 hr (in duplicate) at 37° C. in water bath. To each sample, 10 μL inhibitor and 20 μL ascorbic acid and 2 μL formic acid (20%) were added followed by 400 μL of stop solution (200 ng/mL tolbutamide plus 200 ng/mL labetalol in 50% ACN/MeOH). The substance was mixed thoroughly and thereafter centrifuged at 4,000 rpm for 20 minutes. An aliquot of supernatant (50 μL) from each well were transferred to a sample plate and mixed with 100 μL ultrapure water. The plate was shaked at 800 rpm for about 10 minutes before submitting to LC-MS/MS analysis.
Mass spectrometer (LC-MS/MS) Shimadzu LC 20-AD Shimadzu UHPLC API 4000. Analytical column ACQUITY UPLC® BEH Phenyl 1.7 μm 2.1×50 mm. Mobile phase A: 0.1% Formic Acid in Water. Mobile phase B: 0.1% Formic Acid in Acetonitrile. […] Flow rate 0.7 mL/min.

human 5-HT2B receptor [3] = biological target: T1, human 5-HT2B receptor (Homo sapiens (Human), UniProt P41595); experiment: 5-HT2B binding assay; conditions: [125I](±)DOI, read-out: 5-HT2B binding affinity (% inhibition of control, specific binding)
T1 sequence (P41595 whole entry): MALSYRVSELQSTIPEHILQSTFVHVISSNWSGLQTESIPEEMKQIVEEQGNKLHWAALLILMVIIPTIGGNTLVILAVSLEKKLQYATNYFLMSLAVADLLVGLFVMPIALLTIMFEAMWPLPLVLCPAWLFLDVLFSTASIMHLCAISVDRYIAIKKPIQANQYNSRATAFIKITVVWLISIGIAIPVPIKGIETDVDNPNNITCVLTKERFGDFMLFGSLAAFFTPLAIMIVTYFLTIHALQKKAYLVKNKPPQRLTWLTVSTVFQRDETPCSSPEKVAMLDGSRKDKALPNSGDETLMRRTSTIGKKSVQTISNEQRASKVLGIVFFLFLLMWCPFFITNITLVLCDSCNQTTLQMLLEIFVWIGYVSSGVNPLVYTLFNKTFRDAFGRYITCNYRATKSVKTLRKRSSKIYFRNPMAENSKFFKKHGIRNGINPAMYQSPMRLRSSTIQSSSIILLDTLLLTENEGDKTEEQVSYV
Experimental: Evaluation of the affinity of said compounds for the human 5-HT2B receptor was determined in a radioligand binding assay at Eurofins/Cerep (France). Membrane homogenates prepared from CHO cells expressing the human 5HT2B receptor were incubated for 60 min at room temperature with 0.2 nM [125I](±)DOI (1-(4-iodo-2,5-dimethoxyphenyl)propan-2-amine) in the absence or presence of the test compound in a buffer containing 50 mM Tris-HCl (pH 7.4), 5 mM MgCl2, 10 μM pargyline and 0.1% ascorbic acid. Nonspecific binding is determined in the presence of 1 μM (±)DOI. Following incubation, the samples were filtered rapidly under vacuum through glass fiber filters (GF/B, Packard) presoaked with 0.3% polyethyleneimine (PEI) and rinsed several times with ice-cold 50 mM Tris-HCl using a 96-sample cell harvester (Unifilter, Packard). The filters were dried and counted for radioactivity in a scintillation counter (Topcount, Packard) using a scintillation cocktail (Microscint 0, Packard). The results are expressed as a percent inhibition of the control radioligand specific binding. The standard reference compound was (±)DOI, which was tested in each experiment at several concentrations to obtain a competition curve from which its IC50 is calculated.

[4] = Conversion of compounds in human plasma; type: in vitro ADME; conditions: 1 μM test compound, 37° C., 0-6 hr; nd: not detected
[5] = WO 2010/097092; cited from earlier work
human 5-HT2B receptor [6] = biological target: T1, human 5-HT2B receptor; experiment: 5-HT2B agonist activity assay (IP1 production, HTRF); type: cell-based
Experimental: Evaluation of the agonist activity of compounds (I), (Ia), (Ib), (Ic), (Ia-iab), compound (2), compound (9), compound (15), compound (27), A2, A3, and A7 at the human 5-HT2B receptor was performed by Eurofins/Cerep (France) measuring the compound effects on inositol monophosphate (IP1) production using the HTRF detection method. Briefly, the human 5-HT2B receptor was expressed in transfected CHO cells. The cells were suspended in a buffer containing 10 mM Hepes/NaOH (pH 7.4), 4.2 mM KCl, 146 mM NaCl, 1 mM CaCl2, 0.5 mM MgCl2, 5.5 mM glucose and 50 mM LiCl, then distributed in microplates at a density of 4100 cells/well and incubated for 30 minutes at 37° C. in the presence of buffer (basal control), test compound or reference agonist. For stimulated control measurement, separate assay wells contained 1 μM 5-HT. Following incubation, the cells were lysed and the fluorescence acceptor (fluorophen D2-labeled IP1) and fluorescence donor (anti-IP1 antibody labeled with europium cryptate) were added. After 60 minutes at room temperature, the fluorescence transfer was measured at lambda(Ex) 337 nm and lambda(Em) 620 and 665 nm using a microplate reader (Rubystar, BMG). The IP1 concentration was determined by dividing the signal measured at 665 nm by that measured at 620 nm (ratio). The results were expressed as a percent of the control response to 1 μM 5-HT. The standard reference agonist was 5-HT, which was tested in each experiment at several concentrations to generate a concentration-response curve from which its EC50 value is calculated as described above for dopamine functional assays.

rat hepatocytes = conditions: WO 2010/097092; cited from earlier work
human hepatocytes [7] = conditions: WO 2010/097092; cited from earlier work
[8] = Liu et al.; cited from earlier work

CCCN1CCC[C@@H]2Cc3c(ccc(O[C@@H]4O[C@H](C(=O)O)[C@@H](O)[C@H](O)[C@H]4O)c3O)C[C@H]21 [(Id-ib), (2S,3S,4S,5R,6S)-3,4,5-tri hydroxy-6-(((4aR,10aR)-6-hydroxy-1-propyl-1,2,3,4,4a,5,10,10a-octahydrobenzo[g]quinolin-7-yl)oxy)tetrahydro-2H-pyran-2-carboxylic acid]
Observed metabolite, In vivo PK study after oral dosing (rats) ([1]; oral dosing, rats): Compound (I)
Observed metabolite, Incubation in human hepatocytes (human hepatocytes [2]): Compound (I)
inhibition at 10 µM (human 5-HT2B receptor [3]): -39%
Observed metabolite, Incubation in human plasma [4]: Compound (I)

CCCN1CCC[C@@H]2Cc3c(ccc4c3OCO4)C[C@H]21 [(Ib), (6aR,10aR)-7-propyl-6,6a,7,8,9,10,10a,11-octahydro-[1,3]dioxolo[4′,5′:5,6]benzo[1,2-g]quinoline]
in vivo pharmacology in animal models relevant for Parkinson's Disease [5]: effective
5-HT2B receptor agonism (in words) (human 5-HT2B receptor [6]): agonist
plasma concentrations of compound (I) after oral dosing (in words) [1]: early and high peak plasma concentrations
conversion to compound (I) in rat hepatocytes (rat hepatocytes): demonstrated
conversion to compound (I) in human hepatocytes (human hepatocytes [7]): demonstrated

CCCN1CCC[C@@H]2CC3=C(CCCC3=O)C[C@H]21 [(Ia), reference compound]
in vivo pharmacology in animal models relevant for Parkinson's Disease [5]: effective
EC50 (human 5-HT2B receptor [6]; IP1 production, transfected CHO cells): > 6 µM
activity at 30 µM (human 5-HT2B receptor [6]; read-out: 5-HT2B agonist activity, percent of control response): 58%
plasma concentrations of compound (I) after oral dosing (in words) [1]: early and high peak plasma concentrations
conversion to compound (I) in rats [8]: converted to the active compound (I)
